We go through one compound from US7122679B2, “Multicyclic compounds and the use thereof” (Cephalon, Inc., priority 2000, dated 2006).

For this assay, the target named is recombinant human PARP (Homo sapiens, UniProt P09874). As to the kind of experiment: PARP activity: transfer of radiolabeled ADP-ribose units from [32P]NAD+ to a protein acceptor. The class given is biochemical. Conditions: Table 3. On the procedure: PARP activity was monitored by transfer of radiolabeled ADP-ribose units from [^32P]NAD^+ to a protein acceptor such as histone or PARP itself. […] The reactions were initiated by the addition of 100 μM NAD^+ supplemented with 2 uCi [^32P]NAD^+/mL and maintained at room temperature for 12 minutes. Assays were terminated by the addition of […] and the radiolabeled precipitate was collected on a 96-well filter plate (Millipore, MADP NOB 50), washed with 25% TCA. The amount of acid-insoluble radioactivity, corresponding to polyADP-ribosylated protein, was quantitated in a Wallac MicroBeta scintillation counter.
Single-point inhibition data were calculated by comparing PARP, VEGFR2, or MLK3 activity in the presence of inhibitor to activity in the presence of DMSO only. Inhibition curves for compounds were generated by plotting percent inhibition versus log10 of the concentration of compound. IC50 values were calculated by nonlinear regression using the sigmoidal dose-response (variable slope) equation in GraphPad Prism as follows: y=bottom+(top−bottom)/(1+10^(logIC^50^−x)*Hillslope) where y is the % activity at a given concentration of compound, x is the logarithm of the concentration of compound, bottom is the % inhibition at the lowest compound concentration tested, and top is the % inhibition at the highest compound concentration examined. […]

recombinant human PARP, sequence (P09874 whole entry): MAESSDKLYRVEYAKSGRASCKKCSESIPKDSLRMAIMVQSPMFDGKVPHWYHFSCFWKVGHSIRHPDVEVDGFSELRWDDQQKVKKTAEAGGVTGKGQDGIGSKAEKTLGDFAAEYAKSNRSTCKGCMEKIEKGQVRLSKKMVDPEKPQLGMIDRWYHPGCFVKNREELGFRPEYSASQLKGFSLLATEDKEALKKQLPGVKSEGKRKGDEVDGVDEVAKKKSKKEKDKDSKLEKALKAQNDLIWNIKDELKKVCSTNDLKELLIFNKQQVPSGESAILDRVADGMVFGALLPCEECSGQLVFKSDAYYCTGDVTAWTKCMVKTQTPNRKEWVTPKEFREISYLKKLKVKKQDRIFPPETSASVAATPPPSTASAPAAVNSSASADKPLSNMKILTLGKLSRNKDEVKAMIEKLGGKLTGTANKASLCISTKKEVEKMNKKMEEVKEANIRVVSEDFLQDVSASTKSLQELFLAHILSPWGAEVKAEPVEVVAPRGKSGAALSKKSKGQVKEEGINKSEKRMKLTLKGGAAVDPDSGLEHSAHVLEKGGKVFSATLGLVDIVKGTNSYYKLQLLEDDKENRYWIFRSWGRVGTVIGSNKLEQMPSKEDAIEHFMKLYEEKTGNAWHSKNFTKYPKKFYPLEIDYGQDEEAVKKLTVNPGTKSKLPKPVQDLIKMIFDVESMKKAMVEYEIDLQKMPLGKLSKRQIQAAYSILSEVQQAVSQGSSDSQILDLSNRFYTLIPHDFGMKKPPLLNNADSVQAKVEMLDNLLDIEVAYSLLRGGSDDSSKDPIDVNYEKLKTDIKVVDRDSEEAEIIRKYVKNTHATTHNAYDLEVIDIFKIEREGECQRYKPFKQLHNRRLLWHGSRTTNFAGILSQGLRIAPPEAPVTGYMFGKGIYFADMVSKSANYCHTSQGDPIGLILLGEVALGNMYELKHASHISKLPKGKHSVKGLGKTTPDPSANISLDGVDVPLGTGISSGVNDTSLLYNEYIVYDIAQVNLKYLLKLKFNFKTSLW

For orientation: IC50 means the concentration that inhibits the measured activity by half. Take `NCCCCC(N)C(=O)N1C(=O)c2c3c(c4[nH]c5ccc(Br)cc5c4c2C1=O)CCC3` (stereo not shown) [Compound 6e]: the IC50 is 69 nM.
